BindingDB's records for doi:10.7270/Q2Z31X1B (Nmmlsc, 2007)

Each compound was assayed against T1, fMet-Leu-Phe receptor (Homo sapiens, UniProt P21462) (assay: FPR1 fluorescent ligand binding inhibitors, dose response, cell-based, flow cytometry, Ki from IC50 (AID 724)).
T1 sequence (P21462 whole entry): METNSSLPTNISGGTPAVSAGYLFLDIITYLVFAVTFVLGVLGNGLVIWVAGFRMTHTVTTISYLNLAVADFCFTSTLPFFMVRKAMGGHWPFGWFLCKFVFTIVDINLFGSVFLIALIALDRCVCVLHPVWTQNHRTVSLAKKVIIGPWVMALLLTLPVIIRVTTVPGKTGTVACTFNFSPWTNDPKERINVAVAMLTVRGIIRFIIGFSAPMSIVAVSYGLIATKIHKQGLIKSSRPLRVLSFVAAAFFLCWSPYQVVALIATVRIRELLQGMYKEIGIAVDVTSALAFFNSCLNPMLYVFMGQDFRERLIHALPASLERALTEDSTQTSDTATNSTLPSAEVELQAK
In the case of `Cc1ccc(C(=O)C2C(=O)C(=O)N(Cc3cccnc3)C2c2ccc(Br)cc2)cc1` (centres undefined) [(4E)-5-(4-bromophenyl)-4-[(4-methylphenyl)-oxidanyl-methylidene]-1-(pyridin-3-ylmethyl)pyrrolidine-2,3-dione], the Ki is reported as greater than 44.3 µM. `O=C1C(=O)N(CCc2ccccc2)C(c2ccc(Cl)cc2)C1C(=O)c1cccs1` (centres undefined) [2-(4-chlorophenyl)-4-hydroxy-1-(2-phenylethyl)-3-(thiophene-2-carbonyl)-2H-pyrrol-5-one] showed a Ki of 6.9 µM. For `COc1ccc(C2C(C(=O)c3cccs3)C(=O)C(=O)N2CCN2CCOCC2)c(OC)c1` (centres undefined) [2-(2,4-dimethoxyphenyl)-1-(2-morpholin-4-ylethyl)-4-oxidanyl-3-thiophen-2-ylcarbonyl-2H-pyrrol-5-one], the Ki was 2.9 µM. `O=C(O)CCCN1C(=O)C(=O)C(C(=O)c2ccccc2)C1/C=C/c1ccccc1` (centres undefined) [4-[(4E)-2,3-bis(oxidanylidene)-4-[oxidanyl(phenyl)methylidene]-5-[(E)-2-phenylethenyl]pyrrolidin-1-yl]butanoic acid] showed a Ki greater than 44.3 µM. Work on `COc1cc(C2C(C(=O)c3cc4ccccc4o3)C(=O)C(=O)N2CCN(C)C)ccc1O` (centres undefined) [3-(1-benzofuran-2-carbonyl)-1-[2-(dimethylamino)ethyl]-4-hydroxy-2-(4-hydroxy-3-methoxyphenyl)-2H-pyrrol-5-one] yielded a Ki greater than 44.3 µM. Compound `COc1cc(C2C(C(C)=O)C(=O)C(=O)N2c2ccc(Br)cc2)ccc1O` (centres undefined) [1-(4-bromophenyl)-3-ethanoyl-2-(3-methoxy-4-oxidanyl-phenyl)-4-oxidanyl-2H-pyrrol-5-one] has a Ki greater than 44.3 µM. In the case of `O=C1NC(c2ccc(Br)cc2)C(C(=O)c2ccc(Cl)cc2)C1=O` (centres undefined) [(4E)-5-(4-bromophenyl)-4-[(4-chlorophenyl)-hydroxy-methylene]pyrrolidine-2,3-quinone], the Ki is reported as greater than 44.3 µM. In the case of `COCCCN1C(=O)C(=O)C(C(=O)c2ccccc2)C1c1ccc(O)c(OC)c1` (centres undefined) [(4E)-5-(3-methoxy-4-oxidanyl-phenyl)-1-(3-methoxypropyl)-4-[oxidanyl(phenyl)methylidene]pyrrolidine-2,3-dione], the Ki is reported as 33 µM. Compound `Cc1ccc(N2C(=O)C(=O)C(C(=O)c3ccccc3)C2c2cccc(F)c2)cc1Br` (centres undefined) [(4Z)-1-(3-bromanyl-4-methyl-phenyl)-5-(3-fluorophenyl)-4-[oxidanyl(phenyl)methylidene]pyrrolidine-2,3-dione] has a Ki greater than 44.3 µM. Compound `O=C1C(=O)N(CCCn2ccnc2)C(c2cccnc2)C1C(=O)c1ccco1` (centres undefined) [3-(furan-2-carbonyl)-4-hydroxy-1-(3-imidazol-1-ylpropyl)-2-pyridin-3-yl-2H-pyrrol-5-one] has a Ki greater than 44.3 µM. With `CC(C)c1ccc(C2C(C(=O)c3ccccc3)C(=O)C(=O)N2Cc2cccnc2)cc1` (centres undefined) [(4E)-4-[hydroxy(phenyl)methylene]-5-p-cumenyl-1-(3-pyridylmethyl)pyrrolidine-2,3-quinone] the Ki was 33.2 µM. `COc1ccc(OC)c(C2C(C(=O)c3ccc(C)cc3)C(=O)C(=O)N2CCC(=O)O)c1` (centres undefined) [3-[(3E)-2-(2,5-dimethoxyphenyl)-3-[(4-methylphenyl)-oxidanyl-methylidene]-4,5-bis(oxidanylidene)pyrrolidin-1-yl]propanoic acid] gave a Ki greater than 44.3 µM. In the case of `N#Cc1c(N=C(CC(=O)c2ccccc2)C(=O)O)sc2c1CCC2` [(Z)-2-[(3-cyano-5,6-dihydro-4H-cyclopenta[b]thiophen-2-yl)amino]-4-keto-4-phenyl-but-2-enoic acid], the Ki is reported as greater than 44.3 µM. `COc1ccc(C2C(C(=O)c3ccccc3)C(=O)C(=O)N2CCCn2ccnc2)c(OC)c1` (centres undefined) [(4E)-5-(2,4-dimethoxyphenyl)-1-(3-imidazol-1-ylpropyl)-4-[oxidanyl(phenyl)methylidene]pyrrolidine-2,3-dione] gave a Ki of 3.4 µM. `COc1ccc(C2C(C(=O)c3ccco3)C(=O)C(=O)N2CCCN2CCOCC2)cc1OC` (centres undefined) [2-(3,4-dimethoxyphenyl)-3-(furan-2-carbonyl)-4-hydroxy-1-(3-morpholin-4-ylpropyl)-2H-pyrrol-5-one] gave a Ki greater than 44.3 µM. `COc1ccc(C2C(C(=O)c3cc4ccccc4o3)C(=O)C(=O)N2CCN(C)C)cc1OC` (centres undefined) [3-(1-benzofuran-2-carbonyl)-2-(3,4-dimethoxyphenyl)-1-[2-(dimethylamino)ethyl]-4-hydroxy-2H-pyrrol-5-one] was tested, and the Ki was greater than 44.3 µM. Work on `COc1ccc(OC)c(C2C(C(=O)c3ccccc3)C(=O)C(=O)N2c2cccnc2)c1` (centres undefined) [(4E)-5-(2,5-dimethoxyphenyl)-4-[hydroxy(phenyl)methylene]-1-(3-pyridyl)pyrrolidine-2,3-quinone] yielded a Ki of 6 µM. With `COc1ccc(OC)c(C2C(C(=O)c3ccccc3)C(=O)C(=O)N2c2ccc(C)c(Cl)c2)c1` (centres undefined) [(4E)-1-(3-chloranyl-4-methyl-phenyl)-5-(2,5-dimethoxyphenyl)-4-[oxidanyl(phenyl)methylidene]pyrrolidine-2,3-dione] the Ki was 16.8 µM. For `Cc1ccc(C(=O)C2C(=O)C(=O)N(c3nnc(C)s3)C2c2ccc(C(C)C)cc2)cc1` (centres undefined) [(4E)-4-[(4-methylphenyl)-oxidanyl-methylidene]-1-(5-methyl-1,3,4-thiadiazol-2-yl)-5-(4-propan-2-ylphenyl)pyrrolidine-2,3-dione], the Ki was greater than 44.3 µM. For `O=C1C(=O)N(CCCN2CCOCC2)C(c2cccnc2)C1C(=O)c1cc2ccccc2o1` (centres undefined) [3-(1-benzofuran-2-carbonyl)-4-hydroxy-1-(3-morpholin-4-ylpropyl)-2-pyridin-3-yl-2H-pyrrol-5-one], the Ki was greater than 44.3 µM. `O=C1C(=O)N(c2ccc(F)cc2)C(c2ccc(Br)cc2)C1C(=O)c1ccccc1` (centres undefined) [(4Z)-5-(4-bromophenyl)-1-(4-fluorophenyl)-4-[hydroxy(phenyl)methylene]pyrrolidine-2,3-quinone] showed a Ki greater than 44.3 µM. For `COc1ccc(C(=O)C2C(=O)C(=O)NC2c2ccc(OC)cc2OC)cc1` (centres undefined) [(4Z)-5-(2,4-dimethoxyphenyl)-4-[(4-methoxyphenyl)-oxidanyl-methylidene]pyrrolidine-2,3-dione], the Ki was greater than 44.3 µM. `COc1ccc(C2C(C(=O)c3cccs3)C(=O)C(=O)N2CCCn2ccnc2)cc1` (centres undefined) [1-(3-imidazol-1-ylpropyl)-2-(4-methoxyphenyl)-4-oxidanyl-3-thiophen-2-ylcarbonyl-2H-pyrrol-5-one] showed a Ki of 4.7 µM. With `COc1ccc(C2C(C(=O)c3ccccc3)C(=O)C(=O)N2c2cccc(Cl)c2)c(OC)c1` (centres undefined) [(4E)-1-(3-chlorophenyl)-5-(2,4-dimethoxyphenyl)-4-[hydroxy(phenyl)methylene]pyrrolidine-2,3-quinone] the Ki was 31.1 µM. `COc1ccc(C2C(C(=O)c3ccco3)C(=O)C(=O)N2CCN2CCOCC2)c(OC)c1` (centres undefined) [5-(2,4-dimethoxyphenyl)-4-(furan-2-carbonyl)-3-hydroxy-1-(2-morpholinoethyl)-1H-pyrrol-2(5H)-one] showed a Ki of 6.4 µM. Compound `CC(=O)C1C(=O)C(=O)N(CCc2c(C)[nH]c3ccccc23)C1c1cccc(F)c1` (centres undefined) has a Ki of 11.2 µM. `O=C1C(=O)N(CCCn2ccnc2)C(c2cccnc2)C1C(=O)c1cc2ccccc2o1` (centres undefined) [3-(1-benzofuran-2-carbonyl)-4-hydroxy-1-(3-imidazol-1-ylpropyl)-2-pyridin-3-yl-2H-pyrrol-5-one] gave a Ki greater than 44.3 µM. With `O=C1C(=O)N(CN2CCOCC2)C(c2ccc(Br)cc2)C1C(=O)c1ccccc1` (centres undefined) [(4E)-5-(4-bromophenyl)-1-(morpholin-4-ylmethyl)-4-[oxidanyl(phenyl)methylidene]pyrrolidine-2,3-dione] the Ki was greater than 44.3 µM. In the case of `COCCCN1C(=O)C(=O)C(C(=O)c2ccccc2)C1c1ccc(C(C)C)cc1` (centres undefined) [(4E)-1-(3-methoxypropyl)-4-[oxidanyl(phenyl)methylidene]-5-(4-propan-2-ylphenyl)pyrrolidine-2,3-dione], the Ki is reported as 20.3 µM. `COc1ccc(C(=O)C2C(=O)C(=O)N(CCc3c[nH]c4ccccc34)C2c2ccc(C(C)C)cc2)cc1` (centres undefined) showed a Ki greater than 44.3 µM. `CCCCCCOc1cccc(N2C(=O)C(=O)C(C(=O)c3ccccc3)C2c2cccc(F)c2)c1` (centres undefined) [(4Z)-5-(3-fluorophenyl)-1-(3-hexoxyphenyl)-4-[hydroxy(phenyl)methylene]pyrrolidine-2,3-quinone] showed a Ki greater than 44.3 µM. Work on `COCCN1C(=O)C(=O)C(C(=O)c2ccccc2)C1c1cc(OC)ccc1OC` (centres undefined) [(4E)-5-(2,5-dimethoxyphenyl)-1-(2-methoxyethyl)-4-[oxidanyl(phenyl)methylidene]pyrrolidine-2,3-dione] yielded a Ki of 1.8 µM. For `CCCCCCN1C(=O)C(=O)C(C(=O)c2ccccc2)C1c1ccc(O)c(OC)c1` (centres undefined) [(4Z)-1-hexyl-5-(3-methoxy-4-oxidanyl-phenyl)-4-[oxidanyl(phenyl)methylidene]pyrrolidine-2,3-dione], the Ki was 4.7 µM. `COc1ccc(C2C(C(=O)c3ccc(C)cc3)C(=O)C(=O)N2Cc2cccnc2)c(OC)c1` (centres undefined) [(4E)-5-(2,4-dimethoxyphenyl)-4-[(4-methylphenyl)-oxidanyl-methylidene]-1-(pyridin-3-ylmethyl)pyrrolidine-2,3-dione] showed a Ki of 39.1 µM.
